Data set [1] has as its system A549 cells. The data set is described as follows: Synthetic lethality: cell morphology with CCC021-TPP and ABT-199 or A1155463. The data set is classed as cell-based. Conditions: single administration: 20 μM CCC021-TPP, 10 μM ABT-199, 10 μM A1155463; 4 days. As for the experimental part: It was confirmed with the BCL2- and BCL-XL-specific inhibitor that the suppression of cell death in the cellular senescence of the A549 cells was presumably due to the BCL pathway. The type of BCL pathway inhibition, combined use of which could induce cell death (apoptosis) in the senescent cells of the A549 cells was studied. Five hundred A549 cells were inoculated to a 96-well plate and cultured for 24 hours. Then, change in cell morphology was photographed under an optical microscope either without administration (i.e., after DMSO treatment) or 4 days after treatment with 20 μM CCC021-TPP and 10 μM BCL2 inhibitor ABT-199 (compound venetoclax of No. 33 in FIG. 55-10) or 10 μM BCL-XL inhibitor A1155463 (compound of No. 16 in FIG. 55-6) each alone, or treatment by combined use of the same concentration of CCC021-TPP with the same concentration of ABT-199 or A1155463.

The test system of data set [2] is A549 cells. The data set is described as follows: Synthetic lethality: cell morphology with CCC021-TPP and ABT-263. Conditions: each used alone: 20 μM CCC021-TPP, 10 μM ABT-263; days 2 and 4. The class given is cell-based. The source says:
Since the suppression of cell death in the cellular senescence of the A549 cells was presumably due to the BCL pathway, it was believed that the apoptosis of cells whose cellular senescence was evoked by CCC021-TPP could be induced by combined use with ABT-263 (Cayman Chemical Company) serving as a senolytic drug and a BCL pathway inhibitor. Thus, the possibility of inducing the cell death of senescent cells by CCC021-TPP treatment and combined use with the BCL2/BCL-XL inhibitor ABT-263 was observed under an optical microscope to observe change in cell morphology. Five hundred A549 cells were inoculated to a 96-well plate, cultured for 24 hours, and then observed over time under an optical microscope either without administration or after administration of 20 μM CCC021-TPP and 10 μM ABT-263 each used alone or used concurrently, and cell morphology was photographed on days 2 and 4.

A further data set relates to 3243G High cells. The data set is described as follows: Mitochondrial autophagy (LC3 / cytochrome C immunostaining). Conditions: 100 nM, 52 hours after treatment. The class given is cell-based, human. As for the experimental part: In order to study whether the decrease in the number of mutant mtDNA by PIP-TPP was caused by mitochondrial autophagy reaction, the following experiment was conducted. The mtDNA mutation cell line 3243G High cells were inoculated at 2×10^4 cells/dish to a 35 mm glass base dish (IWAKI), cultured for 24 hours, and then treated with the compound (final concentration: 100 nM). 52 hours after treatment, the cells were fixed with 4% paraformaldehyde (PFA)/PBS at room temperature for 30 minutes. The cells thus fixed were washed with PBS and blocked with 10% FBS/0.1% Triton X100/TBS (TBST) for 10 minutes. TBS is a mixed solution of sodium chloride (final concentration: […]) and Tris (pH 7.4) (final concentration: […]). After the completion of blocking, the cells were reacted overnight at 4° C. with primary antibodies diluted with TBST. The primary antibodies used were a rabbit anti-LC3 antibody (Cell Signaling Technology, Inc.) diluted at 1:200, and a mouse anti-cytochrome C antibody (Thermo Fisher Scientific, USA) diluted at 1:500. After the completion of reaction with the primary antibodies, the cells were washed three times with TBS and reacted for 15 minutes with secondary antibodies diluted with TBST, i.e., Goat anti Rabbit Oregon Green 488 (Invitrogen) diluted at 1:1000 and Goat anti Mouse Alexa Fluor 647 (Invitrogen) diluted at 1:1000. […]

The subject of data set [3] is 3243G Low cells. The data set is described as follows: Ratio between normal mtDNA and mutant mtDNA by PCR-RFLP. Conditions: 1 μM and 5 μM, 48- or 63-day treatment. The data set is classed as cell-based, human. As for the experimental part:
(§1) The 3243G Low cells were inoculated at 2×10^4 cells/well to a 35 mm dish (Falcon), cultured for 24 hours, and then treated with CCC019-TPP (final concentration: 1 μM and 5 μM). The medium was replaced once two days, and CCC019-TPP was continuously administered. Further, 48 and 63 days later, DNA was extracted using Allprep DNA/RNA Mini Kit (QIAGEN) according to the instruction manual. The yield of the DNA thus extracted was measured using NANODROP 2000™ (Thermo Fisher Scientific). DNA samples were prepared, and PCR reaction was conducted. The primers and reaction conditions used are shown below.
(§2) The reaction conditions were as follows.
PCR products were treated with restriction enzyme ApaI as described below, and analyzed. The PCR products were purified using QIAquick PCR Purification Kit (QIAGEN) according to the instruction manual. After the purification, the yield of DNA was measured using NANODROP 2000c (Thermo Fisher Scientific). After the measurement, reaction products amplified in PCR System 9700 (Applied Biosystems, USA) GeneAmp(R) were treated with restriction enzyme Apal at 37° C. for 5 hours. After the completion of reaction, 15 ng of samples was electrophoresed on 2% agarose gel and then stained with ethidium bromide to detect bands of the PCR products. The bands were quantified with analytical software (Image J). […]

The test system of data set [4] is 3243G Low cells. The data set is described as follows: Total mitochondrial DNA copy number by PCR of COII gene. The data set is classed as cell-based, human. The conditions noted are these: 1 μM and 5 μM, 48- or 63-day treatment. As for the experimental part:
as §1, with “dish (Falcon, USA),” for “dish (Falcon),”, “Kit (QIAGEN, Germany)” for “Kit (QIAGEN)”, “NANODROP 2000c” for “NANODROP 2000™”, “reaction and analysis were” for “reaction was”
as §2
After the completion of PCR reaction, PCR products were electrophoresed on 2% agarose gel and then stained with ethidium bromide to detect bands of the PCR products. The bands were quantified with analytical software (Image J).
In order to predict the total copy number of mtDNA in the 3243G Low cells treated with CCC019-TPP for 48 or 63 days, COII gene constituting mitochondrial respiratory chain complex IV was subjected to PCR.

A short description of data set [5]: Skin penetrability confirmation experiment (anti-TPP immunohistochemical staining). The class given is in vivo, mice ICR. Conditions: 18 hours. As for the experimental part:
Outbred mice ICR were purchased from Oriental Yeast Co., Ltd. The experiment was conducted by the administration of linear-chain PIP-TPP (CCC149-TPP) having a molecular weight of 1274.7 to the mouse back. The back skin of each 5-week-old ICR mouse was shaved. After confirmation that the hair growth cycle was not reached, DMSO containing no PIP-TPP, and solutions of PIP-TPP (dissolved in DMSO, dissolved in 95% DMSO/5% laurocapram (transdermal absorption promoter) and dissolved in 95% DMSO/5% laurocapram 24 hours after stratum corneum removal) adjusted so as to attain 30 mg/cm^2 were applied to 4 locations, respectively, of the back as shown in FIG. 28 at the age of 6 weeks. 18 hours later, the mouse was euthanized, and skin tissues were obtained and fixed in 4% paraformaldehyde. Then, paraffin blocks were prepared and co-stained by immunohistochemical staining with an anti-TPP antibody and DAPI staining of the nucleus to test the skin penetrability of the drug into cells and subcutaneous tissues.

For the next data set, the system named is C33A. The data set is described as follows: WST cell proliferation assay of library compounds. The class given is cell-based. The conditions noted are these: Homo sapiens, C-33-A, 120 h, 5 days. As for the experimental part: (§3) This compound can recognize the T4216C mutation of mitochondrial ND1 gene, and a uterine cervical cancer cell line C33A has this mutation. Cell proliferation assay with wild-type HeLa cells, which is also a uterine cervical cancer cell line, was conducted in the same manner as in Example 1. 1000 cells were inoculated to a 96-well plate, and CCC1283-TPP was administered at 0.5, 1, 5, 10, and 20 μM. 5 days later, WST assay was conducted.
(§4) This compound can recognize the T4216C mutation of mitochondrial ND1 gene, and a uterine cervical cancer cell line C33A has this mutation. Cell proliferation assay with wild-type HeLa cells, which is also a uterine cervical cancer cell line, was conducted in the same manner as in Example 1. 1000 cells were inoculated to a 96-well plate, and CCCh531-TPP was administered at 0.5, 1, 5, 10, and 20 μM. 5 days later, WST assay was conducted.
(§5) Compound CCCh560-TPP with a decacyclic structure targeting the A8860G polymorphism of mitochondrial gene ATP6 found in human populations, not acquired mitochondrial mutations in somatic cells, was studied for whether the suppression of cell proliferation was also found by 5-day treatment with the compound for the mitochondrial DNA polymorphism in cancer cell lines C33A, HeLa, Siha, Caski, and ME180 having this polymorphism in homoplasmy and human nontumor skin-derived fibroblast HDF cells. For this purpose, cell proliferation assay was conducted in the same manner as in Example 1. 1000 cells were inoculated to a 96-well plate, and CCCh560-TPP was administered at 0.5, 1, 5, 10, and 20 μM. 5 days later, WST assay was conducted.

For another data set, the system named is HeLa cells. The data set is described as follows: WST cell proliferation assay of library compounds. The class given is cell-based. Conditions: Homo sapiens, 120 h, 5 days. As for the experimental part: as §3, §4, §5

The record followed here is US20220193241A1, “AGENT TARGETING DOUBLE-MEMBRANE ORGANELLE DNA” (CHIBA-PREFECTURE, priority 2019, published 2022).

The structures appear in SMILES notation.

For the molecule `CN(C)CC#Cc1ccc(OCCCc2sc(N3CCc4cccc(C(=O)Nc5nc6ccccc6s5)c4C3)nc2C(=O)O)c(F)c1` [A1155463, reference compound], the “cell death (morphology)” value in the data set on A549 cells [1] was “Any finding indicating cell death was not obtained”.

Turning to `CC1(C)CCC(c2ccc(Cl)cc2)=C(CN2CCN(c3ccc(C(=O)NS(=O)(=O)c4ccc(N[C@H](CCN5CCOCC5)CSc5ccccc5)c(S(=O)(=O)C(F)(F)F)c4)cc3)CC2)C1` [ABT-263, Navitoclax (ABT-263), reference compound], in the data set with A549 cells [2], the “cells that underwent apoptosis (morphology)” value was “not detected”.

Consider `CC(=O)Nc1cn(C)c(C(=O)Nc2cn(C)c(C(=O)Nc3cn(C)c(C(=O)NCCC(=O)Nc4cc(C(=O)Nc5cc(C(=O)NCCCC(=O)Nc6cn(C)c(C(=O)Nc7cn(C)c(C(=O)Nc8cn(C)c(C(=O)NCCC(=O)Nc9cc(C(=O)Nc%10cc(C(=O)NCCC(=O)NCCCN(C)C)n(C)c%10)n(C)c9)n8)n7)n6)n(C)c5)n(C)c4)n3)n2)n1` [CCC018-TPP], for which, in the data set on 3243G High cells, the “colocalization of autophagic marker LC3 with mitochondria (mitophagy)” value is on record as “colocalization of the autophagic effect with mitochondria was clearly observed”.

Turning to `CN(C)CCCNC(=O)CCNC(=O)c1nc(NC(=O)c2nc(NC(=O)CCNC(=O)c3cc(NC(=O)c4nc(NC(=O)c5nc(NC(=O)CCCNC(=O)c6cc(NC(=O)c7cc(NC(=O)c8nc(NC(=O)CCNC(=O)c9cc(NC(=O)c%10cc(NC(=O)CCNC(=O)CCCC[P+](c%11ccccc%11)(c%11ccccc%11)c%11ccccc%11)cn%10C)cn9C)cn8C)cn7C)cn6C)cn5C)cn4C)cn3C)cn2C)cn1C` [CCC019-TPP], the “ratio between normal mtDNA and mutant mtDNA” value in the data set on 3243G Low cells [3] was “tendency to increase the proportion of wild-type mitochondrial DNA and decrease the proportion of mutant mitochondrial DNA”. Besides, the “total copy number of mtDNA” value in the data set with 3243G Low cells [4] is reported as “tendency to increase the total copy number of mtDNA”.

For `CN(C)CCCNC(=O)CCNC(=O)c1cc(NC(=O)c2nc(NC(=O)CCNC(=O)c3nc(NC(=O)c4cc(NC(=O)c5nc(NC(=O)CCNC(=O)CCCC[P+](c6ccccc6)(c6ccccc6)c6ccccc6)cn5C)cn4C)cn3C)cn2C)cn1C` [CCC149-TPP], the “skin penetrability (anti-TPP stain)” value was “stain of TPP was found in the perikaryon of subcutaneous tissues” in data set [5] (95% DMSO/5% laurocapram (transdermal absorption promoter)); “present in skin basement membrane cells” in data set [5] (applied to back skin, dissolved in DMSO); “more clearly found into the subcutaneous tissues and muscular coat” in data set [5] (stratum corneum removal and 95% DMSO/5% laurocapram).

As a reminder, the IC50 is the midpoint of a concentration-inhibition curve. A lower IC50 goes with greater potency. In the case of `CN(C)CCCNC(=O)CCNC(=O)c1cc(NC(=O)c2cc(NC(=O)c3nc(NC(=O)CCNC(=O)c4cc(NC(=O)c5cc(NC(=O)CCCNC(=O)c6nc(NC(=O)c7cc(NC(=O)CCNC(=O)c8cc(NC(=O)c9cc(NC(=O)c%10nc(NC(=O)CCNC(=O)CC[P+](c%11ccccc%11)(c%11ccccc%11)c%11ccccc%11)cn%10C)cn9C)cn8C)cn7C)cn6C)cn5C)cn4C)cn3C)cn2C)cn1C` [CCCh531-TPP], the figures for the IC50 in the data set on C33A and in the data set on HeLa cells were 3.34 µM and 11.8 µM, respectively.
